Source: patent US11291667B2, “Combination therapy involving diaryl macrocyclic compounds” (TURNING POINT THERAPEUTICS, INC., priority 2017, dated 2022)
Read-outs that look alike come from different tables or passages of the source.

Tests used:
phosphorylated ERK = experiment: Immunoblotting for cellular kinase phosphorylation; assay type: cell-based, Human; conditions: NCI-H1975 cells, 4 hours, 1 μM concentration
phosphorylated STAT3 = experiment: Immunoblotting for cellular kinase phosphorylation; assay type: cell-based, Human; conditions: NCI-H1975 cells, 4 hours, 1 μM concentration
phosphorylated paxillin = experiment: Immunoblotting for cellular kinase phosphorylation; assay type: cell-based, Human; conditions: NCI-H1975 cells, 4 hours; for inhibition of phosphorylation of paxillin: 1 μM concentration
phosphorylated AKT = experiment: Immunoblotting for cellular kinase phosphorylation; assay type: cell-based, Human; conditions: NCI-H1975 cells, 4 hours, 1 μM concentration
NCI-H1975 cells = experiment: NCI-H1975 lung cancer cell proliferation assay (CellTiter-Glo); assay type: cell-based, Human; conditions: for IC50: Homo sapiens, NCI-H1975, 72 h; for inhibition of NCI-H1975 cell proliferation (in words): NCI-H1975 cells, 72 hours
phosphorylated EGFR = experiment: Immunoblotting for cellular kinase phosphorylation; assay type: cell-based, Human
FAK = FAK (Homo sapiens (Human), UniProt Q05397); experiment: Enzymatic kinase inhibition assay 1 (Eurofins KinaseProfiler); assay type: biochemical; conditions: kinase activity remaining as % of DMSO control; 1 μM compound; ATP 10 μM
Sequence of FAK (Q05397 whole entry): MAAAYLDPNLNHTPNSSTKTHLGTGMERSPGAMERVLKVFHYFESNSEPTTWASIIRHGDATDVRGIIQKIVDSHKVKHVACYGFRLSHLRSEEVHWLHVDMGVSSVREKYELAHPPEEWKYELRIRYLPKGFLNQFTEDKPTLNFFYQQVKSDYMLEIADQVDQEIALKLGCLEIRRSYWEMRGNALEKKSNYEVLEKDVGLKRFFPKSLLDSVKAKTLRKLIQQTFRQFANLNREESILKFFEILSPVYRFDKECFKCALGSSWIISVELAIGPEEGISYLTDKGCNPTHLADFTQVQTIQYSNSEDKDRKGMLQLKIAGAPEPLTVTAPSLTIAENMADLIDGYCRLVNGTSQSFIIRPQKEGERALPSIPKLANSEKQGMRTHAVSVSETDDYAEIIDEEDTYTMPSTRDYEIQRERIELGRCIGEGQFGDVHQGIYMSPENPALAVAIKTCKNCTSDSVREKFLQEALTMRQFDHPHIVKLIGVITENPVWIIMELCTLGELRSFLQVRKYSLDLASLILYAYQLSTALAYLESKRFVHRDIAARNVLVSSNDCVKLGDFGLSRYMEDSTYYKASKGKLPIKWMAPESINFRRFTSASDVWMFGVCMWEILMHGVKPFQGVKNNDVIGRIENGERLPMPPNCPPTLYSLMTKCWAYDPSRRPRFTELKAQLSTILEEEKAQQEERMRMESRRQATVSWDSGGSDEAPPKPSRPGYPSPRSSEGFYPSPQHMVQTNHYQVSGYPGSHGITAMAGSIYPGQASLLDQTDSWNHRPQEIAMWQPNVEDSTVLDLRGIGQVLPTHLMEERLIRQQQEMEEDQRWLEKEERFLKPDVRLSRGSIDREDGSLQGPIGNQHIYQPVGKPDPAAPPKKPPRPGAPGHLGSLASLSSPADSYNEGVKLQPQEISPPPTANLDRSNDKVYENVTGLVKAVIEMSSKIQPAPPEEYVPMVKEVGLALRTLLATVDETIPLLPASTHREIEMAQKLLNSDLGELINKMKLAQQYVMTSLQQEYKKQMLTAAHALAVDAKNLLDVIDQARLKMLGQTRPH
Protocol: (§1) The enzymatic kinase inhibition against FAK, SRC and JAK2 were evaluated at Eurofins using the Erofins KinaseProfiler™ panel. All compounds were prepared to a working stock of 50× final assay concentration in 100% DMSO. Where appropriate, more concentrated stocks were diluted manually to 50× using 100% DMSO. Compounds supplied as powders were reconstituted to a 10 mM stock in 100% DMSO before further dilution to 50×. The required volume of the 50× stock of test compound was added to the assay well, before a reaction mix containing the enzyme and substrate was added. The reaction was initiated by the addition of ATP at 10 μM concentration. There was no pre-incubation of the compound with the enzyme/substrate mix prior to ATP addition. Data are handled using a custom built in-house analysis software. Results are expressed as kinase activity remaining, as a percentage of the DMSO control. This is calculated using the following formula: […].

JAK2 = JAK2 (Homo sapiens (Human), UniProt O60674); experiment: as above; assay type: biochemical; conditions: kinase activity remaining as % of DMSO control; 1 μM compound; ATP 10 μM
Sequence of JAK2 (O60674 whole entry): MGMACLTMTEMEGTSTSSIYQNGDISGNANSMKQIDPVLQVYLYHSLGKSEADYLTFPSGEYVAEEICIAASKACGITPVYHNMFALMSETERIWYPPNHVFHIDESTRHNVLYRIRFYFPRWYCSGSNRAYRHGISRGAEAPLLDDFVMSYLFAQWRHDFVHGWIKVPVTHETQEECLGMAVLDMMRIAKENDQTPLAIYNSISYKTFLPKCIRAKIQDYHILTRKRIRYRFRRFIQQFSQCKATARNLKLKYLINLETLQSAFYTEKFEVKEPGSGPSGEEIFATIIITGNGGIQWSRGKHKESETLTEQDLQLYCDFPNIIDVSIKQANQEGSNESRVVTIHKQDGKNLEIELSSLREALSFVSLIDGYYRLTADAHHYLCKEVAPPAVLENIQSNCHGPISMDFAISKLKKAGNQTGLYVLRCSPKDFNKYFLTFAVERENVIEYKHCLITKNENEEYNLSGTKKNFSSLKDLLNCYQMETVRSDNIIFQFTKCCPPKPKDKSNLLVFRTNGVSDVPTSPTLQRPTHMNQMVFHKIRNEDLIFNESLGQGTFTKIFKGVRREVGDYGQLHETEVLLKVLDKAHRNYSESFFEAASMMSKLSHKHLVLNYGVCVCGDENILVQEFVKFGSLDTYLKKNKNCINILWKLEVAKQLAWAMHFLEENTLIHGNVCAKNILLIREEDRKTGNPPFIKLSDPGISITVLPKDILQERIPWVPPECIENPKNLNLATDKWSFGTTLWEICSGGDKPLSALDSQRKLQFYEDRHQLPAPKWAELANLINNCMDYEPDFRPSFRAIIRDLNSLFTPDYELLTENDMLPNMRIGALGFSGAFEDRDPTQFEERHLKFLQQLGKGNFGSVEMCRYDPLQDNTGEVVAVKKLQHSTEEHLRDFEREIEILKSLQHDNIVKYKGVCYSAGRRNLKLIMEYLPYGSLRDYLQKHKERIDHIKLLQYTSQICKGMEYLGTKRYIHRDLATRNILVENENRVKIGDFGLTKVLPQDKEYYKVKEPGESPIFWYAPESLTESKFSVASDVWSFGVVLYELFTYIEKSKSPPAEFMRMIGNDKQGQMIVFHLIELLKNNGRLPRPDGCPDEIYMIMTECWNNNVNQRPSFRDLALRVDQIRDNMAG
Protocol: as §1

SRC = SRC (Homo sapiens (Human), UniProt P12931); experiment: as above; assay type: biochemical; conditions: kinase activity remaining as % of DMSO control; 1 μM compound; ATP 10 μM
Sequence of SRC (P12931 whole entry, looked up): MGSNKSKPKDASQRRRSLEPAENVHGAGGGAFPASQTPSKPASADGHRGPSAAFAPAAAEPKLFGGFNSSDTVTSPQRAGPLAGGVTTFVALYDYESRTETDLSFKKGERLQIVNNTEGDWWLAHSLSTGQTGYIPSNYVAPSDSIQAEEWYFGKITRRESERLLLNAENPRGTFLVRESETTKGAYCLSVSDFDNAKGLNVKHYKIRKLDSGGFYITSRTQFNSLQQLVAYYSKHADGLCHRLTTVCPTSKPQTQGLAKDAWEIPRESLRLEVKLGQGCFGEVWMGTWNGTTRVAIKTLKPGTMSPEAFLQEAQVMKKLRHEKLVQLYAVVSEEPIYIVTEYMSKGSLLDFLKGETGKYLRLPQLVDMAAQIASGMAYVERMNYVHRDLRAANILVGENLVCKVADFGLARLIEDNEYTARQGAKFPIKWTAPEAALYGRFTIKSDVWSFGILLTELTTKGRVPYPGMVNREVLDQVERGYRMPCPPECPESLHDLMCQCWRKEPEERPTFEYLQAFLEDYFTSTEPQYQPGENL
Protocol: as §1

[1] = read-out: anti-proliferation IC50 of EGFR inhibitor with Compound 1 at 3 μM
[2] = read-out: anti-proliferation IC50

| Compound | inhibition of phosphorylation of ERK (phosphorylated ERK) | inhibition of phosphorylation of STAT3 (phosphorylated STAT3) | inhibition of phosphorylation of paxillin (phosphorylated paxillin) | inhibition of phosphorylation of AKT (phosphorylated AKT) | IC50 (NCI-H1975 cells; read-out: anti-proliferation IC50 (partial)) | IC50 (NCI-H1975 cells; [1]) | inhibition of NCI-H1975 cell proliferation (in words) (NCI-H1975 cells) | inhibition of phosphorylation of EGFR (phosphorylated EGFR) | % remaining FAK at 1 μM testing comp. (FAK) | % remaining JAK2 at 1 μM testing comp. (JAK2) | % remaining SRC at 1 μM testing comp. (SRC) | inhibition of phosphorylation of SRC/FAK substrate paxillin (phosphorylated paxillin; dose response (FIG. 11)) | IC50 (NCI-H1975 cells; [2]) | inhibition of phosphorylation of EGFR (phosphorylated EGFR; NCI-H1975 cells, 4 hours, 1 μM concentration) | inhibition of EGFR phosphorylation (phosphorylated EGFR; NCI-H1975 cells, 4 hours, dose response (FIG. 11)) |
| --- | --- | --- | --- | --- | --- | --- | --- | --- | --- | --- | --- | --- | --- | --- | --- |
| C=CC(=O)Nc1cc(Nc2nccc(-c3cn(C)c4ccccc34)n2)c(OC)cc1N(C)CCN(C)C [osimertinib] | significant inhibition | minimum inhibition | minimum inhibition | significant inhibition | […] | […] | […] | significant inhibition |  |  |  |  |  |  |  |
| C[C@H]1Nc2ccn3ncc(c3n2)C(=O)NC[C@@H](O)COc2ccc(F)cc21 [Compound 2, (7R,14R)-12-fluoro-7-hydroxy-14-methyl-5,6,7,8,14,15-hexahydro-4H-1,16-ethenopyrazolo[4,3-g][1,5,9,11]benzoxatriazacyclotetradecin-4-one] |  |  |  |  |  |  |  |  | −1% | 3% | 2% |  |  |  |  |
| C[C@H]1CNC(=O)c2cnn3ccc(nc23)N[C@H](C)c2cc(F)ccc2O1 [Compound 1, (7S,13R)-11-fluoro-7,13-dimethyl-6,7,13,14-tetrahydro-1,15-ethenopyrazolo[4,3-f][1,4,8,10]benzoxatriazacyclotridecin-4(5H)-one] | minimum inhibition | significant inhibition | significant inhibition | minimum inhibition |  |  | only partial inhibition activity |  | −1% | 0% | 1% | dose-dependently inhibited | 4 µM | minimum inhibition | no inhibition |
| C#Cc1cccc(Nc2ncnc3cc(OCCOC)c(OCCOC)cc23)c1 [erlotinib] | minimum inhibition | minimum inhibition | minimum inhibition | minimum inhibition |  | 1 µM | not sensitive |  |  |  |  |  | 6.24 µM |  |  |
| O=C1NCCCOc2ccc(F)cc2CCc2ccn3ncc1c3n2 [Compound 3, 12-fluoro-5,6,7,8,14,15-hexahydro-4H-1,16-ethenopyrazolo[4,3-g][1,5,9]benzoxadiazacyclotetradecin-4-one] |  |  |  |  |  |  |  |  | −2% | 6% | 8% |  |  |  |  |
